From patent publication US9321781B2, “Topoisomerase inhibitors” (Rutgers, The State University of New Jersey, priority 2009, dated 2016)
Like-named read-outs stand apart in the source and are kept apart here.

Tests used:
[1] = system: human lymphoblast RPMI 8402; test: MTT cytotoxicity assay (Test B), RPMI 8402; assay type: cell-based; settings: RPMI 8402 cells, continuous exposure four days, read-out: Cytotoxicity (IC50 values (μM) RPMI8402)
Procedure: (§1) Test B. Cytotoxic assays (cancer cell lines and efflux transporter cell lines)
(§2) The cytotoxicity was determined using the MTT-microtiter plate tetrazolinium cytotoxicity assay (MTA). The human lymphoblast RPMI 8402 and its camptothecin-resistant variant cell line, CPT-K5 was provided by Dr. Toshiwo Andoh (Aichi Cancer Center Research Institute, Nagoya, Japan). The P388 mouse leukemia cell line and its CPT-resistant TOP1-deficient variant P388/CPT45 were obtained from Michael R. Mattern and Randal K. Johnson (GlaxoSmithKline, King of Prussia, Pa.). The KB3-1 cell line and its multidrug-resistant variant KBV-1 were obtained from K.V. Chin (The Cancer Institute of New Jersey, New Brunswick, N.J.). The KBH5.0 cell line as noted previously was derived from KB3-1 by stepwise selection against Hoechst 33342. The cytotoxicity assay was performed using 96-well microtiter plates. Cells were grown in suspension at 37° C. in 5% CO2 and maintained by regular passage in RPMI medium supplemented with 10% heat inactivated fetal bovine serum, L-glutamine (2 mM), penicillin (100 U/mL), and Streptomycin (0.1 mg/mL). For determination of IC50, cells were exposed continuously for four days to varying concentrations of drug, and MTT assays were performed at the end of the fourth day. […] All assays were performed at least twice in six replicate wells.

[2] = system: CPT-K5 (camptothecin-resistant variant cell line of RPMI 8402); test: MTT cytotoxicity assay (Test B), CPT-K5; assay type: cell-based, human; settings: CPT-K5 cells, continuous exposure four days
Procedure: as §1, §2

[3] = system: P388 mouse leukemia cell line; test: MTT cytotoxicity assay (Test B), P388; assay type: cell-based; settings: 96 h, P388 cells, continuous exposure four days
Procedure: as §1, §2

[4] = system: P388/CPT45 (CPT-resistant TOP1-deficient variant of P388); test: MTT cytotoxicity assay (Test B), P388/CPT45; assay type: cell-based; settings: Mus musculus, P388CPT45, 96 h, P388/CPT45 cells, continuous exposure four days
Procedure: as §1, §2

[5] = MTT cytotoxicity assay, KB3-1 parent cell line; assay type: cell-based; settings: human, KB3-1 cells (parent cell line), KB3-1 parent cells, continuous exposure four days
Procedure: as §1, §2
(§3) The cytotoxicity of the representative compounds of the invention were also tested against cell line KB3-1 (parent cell line), KBV-1 (a variant that overexpresses efflux transporter MDR1) and KBH5.0 (a variant that overexpresses BCRP). Differences in the relative cytotoxicity between the parent and variant cell lines may be indicative of a compound that is a substrate for an efflux transporter. […] Accordingly, compounds of the invention may be useful to treat tumors that are resistant to other anticancer agents, including anticancer agents that are susceptible to efflux by BCRP (e.g. anthracyclines, mitoxantrone, topotecan, irinotecan, bisanthrone, doxorubicin, daunorubicin, and epirubin.

MDR1 = test: MTT cytotoxicity assay, KBV-1 efflux transporter cell line; assay type: cell-based; settings: human, KBV-1 cells (KB3-1 variant that overexpresses MDR1), KBV-1 cells (MDR1 overexpressing), continuous exposure four days
Procedure: as §1, §2, §3

BCRP = test: MTT cytotoxicity assay, KBH5.0 efflux transporter cell line; assay type: cell-based; settings: human, KBH5.0 cells (KB3-1 variant that overexpresses BCRP); KBH5.0 cells (BCRP overexpressing), continuous exposure four days, MTT
Procedure: as §1, §2, §3

[6] = system: KBH5.0 (a variant that overexpresses BCRP); test: as above; assay type: cell-based; settings: inferred from relative cytotoxicity KB3-1 vs KBH5.0
Procedure: as §1, §2, §3

## COc1cc2c(cc1OC(=O)c1ccccc1)c(=O)n(CCN(C)C)c1c3cc4c(cc3ncc21)OCO4 [Example 1, 5-(2-(dimethylamino)ethyl)-9-methoxy-2,3-methylenedioxy-6-oxo-5,6-dihydrodibenzo[c,h][1,6]naphthyridin-8-yl benzoate]
[1]; Homo sapiens, RPMI 8402, 96 h
  IC50: 0.006 µM
[1]
  IC50: 0.009 µM
[2]
  IC50: 0.55 µM
[2]; Homo sapiens, CPT-K5, 96 h
  IC50: 0.5 µM
[3]
  IC50: 0.002 µM
[4]
  IC50: 0.12 µM
[5]
  IC50 at 4 days: 0.002 µM
MDR1
  IC50 at 4 days: 0.06 µM
BCRP
  IC50 at 4 days: 0.025 µM

## COc1cc2c(cc1OC(=O)c1ccccc1C)c(=O)n(CCN(C)C)c1c3cc4c(cc3ncc21)OCO4 [Example 2, 5-(2-(dimethylamino)ethyl)-9-methoxy-2,3-methylenedioxy-6-oxo-5,6-dihydrodibenzo[c,h][1,6]naphthyridin-8-yl 2-methylbenzoate]
[1]; Homo sapiens, RPMI 8402, 96 h
  IC50: 0.07 µM
[1]
  IC50: 0.05 µM
[2]; Homo sapiens, CPT-K5, 96 h
  IC50: 2 µM
[3]
  IC50: 0.03 µM
[4]
  IC50: 0.4 µM
[5]
  IC50 at 4 days: 0.04 µM
MDR1
  IC50 at 4 days: 0.2 µM
BCRP
  IC50 at 4 days: 0.04 µM
[6]
  substrate for efflux transporter BCRP: not a substrate for BCRP

## COc1cc2c(cc1OC(C)=O)c(=O)n(CCN(C)C)c1c3cc4c(cc3ncc21)OCO4 [Example 3, 5-(2-(dimethylamino)ethyl)-9-methoxy-2,3-methylenedioxy-6-oxo-5,6-dihydrodibenzo[c,h][1,6]naphthyridin-8-yl acetate]
[1]; Homo sapiens, RPMI 8402, 96 h
  IC50: 0.009 µM
[2]; Homo sapiens, CPT-K5, 96 h
  IC50: 0.7 µM
[3]
  IC50: 0.004 µM
[4]
  IC50: 0.3 µM
[5]
  IC50 at 4 days: 0.007 µM
MDR1
  IC50 at 4 days: 0.06 µM
BCRP
  IC50 at 4 days: 0.025 µM

## COc1cc2c(cc1OC(=O)C(C)(C)C)c(=O)n(CCN(C)C)c1c3cc4c(cc3ncc21)OCO4 [Example 4, 5-(2-(dimethylamino)ethyl)-9-methoxy-2,3-methylenedioxy-6-oxo-5,6-dihydrodibenzo[c,h][1,6]naphthyridin-8-yl pivalate]
[1]; Homo sapiens, RPMI 8402, 96 h
  IC50: 0.0007 µM
[2]; Homo sapiens, CPT-K5, 96 h
  IC50: 0.3 µM
[3]
  IC50: 0.003 µM
[4]
  IC50: 0.25 µM
[5]
  IC50 at 4 days: 0.002 µM
MDR1
  IC50 at 4 days: 0.024 µM
BCRP
  IC50 at 4 days: 0.017 µM

## COc1cc2c(cc1OC(=O)CCC1CCCC1)c(=O)n(CCN(C)C)c1c3cc4c(cc3ncc21)OCO4 [Example 5, 5-(2-(dimethylamino)ethyl)-9-methoxy-2,3-methylenedioxy-6-oxo-5,6-dihydrodibenzo[c,h][1,6]naphthyridin-8-yl (3-cyclopentyl)propionate]
[1]; Homo sapiens, RPMI 8402, 96 h
  IC50: 0.003 µM
[2]; Homo sapiens, CPT-K5, 96 h
  IC50: 0.33 µM
[3]
  IC50: 0.002 µM
[4]
  IC50: 0.07 µM
[5]
  IC50 at 4 days: 0.003 µM
MDR1
  IC50 at 4 days: 0.058 µM
BCRP
  IC50 at 4 days: 0.013 µM

## CCOC(=O)Oc1cc2c(=O)n(CCN(C)C)c3c4cc5c(cc4ncc3c2cc1OC)OCO5 [Example 6, 5-(2-(dimethylamino)ethyl)-9-methoxy-2,3-methylenedioxy-6-oxo-5,6-dihydrodibenzo[c,h][1,6]naphthyridin-8-yl ethyl carbonate]
[1]; Homo sapiens, RPMI 8402, 96 h
  IC50: 0.0006 µM
[2]; Homo sapiens, CPT-K5, 96 h
  IC50: 0.25 µM
[3]
  IC50: 0.0002 µM
[4]
  IC50: 0.06 µM
[5]
  IC50 at 4 days: 0.001 µM
MDR1
  IC50 at 4 days: 0.003 µM
BCRP
  IC50 at 4 days: 0.008 µM

## COc1cc2c(cc1OC(=O)OC(C)(C)C)c(=O)n(CCN(C)C)c1c3cc4c(cc3ncc21)OCO4 [Example 7, tert-butyl 5-(2-(dimethylamino)ethyl)-9-methoxy-2,3-methylenedioxy-6-oxo-5,6-dihydrodibenzo[c,h][1,6]naphthyridin-8-yl carbonate]
[1]; Homo sapiens, RPMI 8402, 96 h
  IC50: 0.0005 µM
[2]; Homo sapiens, CPT-K5, 96 h
  IC50: 0.31 µM
[3]
  IC50: 0.001 µM
[4]
  IC50: 0.08 µM
[5]
  IC50 at 4 days: 0.002 µM
MDR1
  IC50 at 4 days: 0.004 µM
BCRP
  IC50 at 4 days: 0.009 µM

## CCNC(=O)Oc1cc2c(=O)n(CCN(C)C)c3c4cc5c(cc4ncc3c2cc1OC)OCO5 [Example 8, 5-(2-(dimethylamino)ethyl)-9-methoxy-2,3-methylenedioxy-6-oxo-5,6-dihydrodibenzo[c,h][1,6]naphthyridin-8-yl ethylcarbamate]
[1]; Homo sapiens, 96 h
  IC50: 0.003 µM
[2]; Homo sapiens, 96 h
  IC50: 0.5 µM
[3]
  IC50: 0.003 µM
[4]
  IC50: 0.09 µM
[5]
  IC50 at 4 days: 0.004 µM
MDR1
  IC50 at 4 days: 0.04 µM
BCRP
  IC50 at 4 days: 0.015 µM

## COc1cc2c(cc1OC(=O)N(C)C)c(=O)n(CCN(C)C)c1c3cc4c(cc3ncc21)OCO4 [Example 9, 5-(2-(dimethylamino)ethyl)-9-methoxy-2,3-methylenedioxy-6-oxo-5,6-dihydrodibenzo[c,h][1,6]naphthyridin-8-yl dimethylcarbamate]
[1]; Homo sapiens, 96 h
  IC50: 1.7 µM
[2]; Homo sapiens, 96 h
  IC50: > 10 µM
[3]
  IC50: 1.3 µM
[4]
  IC50: 3.8 µM
[5]
  IC50 at 4 days: 0.4 µM
MDR1
  IC50 at 4 days: 3 µM
BCRP
  IC50 at 4 days: 2 µM

## COc1cc2c(cc1OC(=O)N1CCC(N3CCCCC3)CC1)c(=O)n(CCN(C)C)c1c3cc4c(cc3ncc21)OCO4 [Example 10, 5-(2-(dimethylamino)ethyl)-9-methoxy-2,3-methylenedioxy-6-oxo-5,6-dihydrodibenzo[c,h][1,6]naphthyridin-8-yl 1,4′-bipiperidine-1′-carboxylate]
[1]; Homo sapiens, 96 h
  IC50: 0.55 µM
[2]; Homo sapiens, 96 h
  IC50: 1.5 µM
[3]
  IC50: 0.5 µM
[4]
  IC50: 0.5 µM
[5]
  IC50 at 4 days: 0.75 µM
MDR1
  IC50 at 4 days: 1.6 µM
BCRP
  IC50 at 4 days: 1.1 µM
